Experiments:
[1] = system: paclitaxel treated p16-3MR mice; assay: Chemotherapy related side effects: voluntary exercise (wheel counts) after paclitaxel in p16-3MR mice; format: in vivo, mouse; details: ABT-263 100 mg/kg ip daily 7 days; ganciclovir 25 mg/kg ip daily 3 days
Method: ABT-263 (100 mg/kg) was administered intraperitoneally daily for seven days after paclitaxel administration. Two days after the last dose of ABT-263, all groups of animals were housed in metabolic cages (promethion, sable systems international, Las Vegas, Nev.) to monitor voluntary exercise as determined by wheel counts. Data were collected and analyzed two days later. Clearance of senescent cells by ABT-263 and ganciclovir restored approximately 70% of wheel count reduction caused by chemotherapy treatment.

[2] = system: p16-3MR mice fed a high fat diet; assay: High fat feeding-induced senescence in p16-3MR mice, SA-β-Gal staining of adipose tissue; format: in vivo, mouse; details: 25 mg/kg daily for five consecutive days; p=<0.004
Method: Groups of p16-3MR mice (n=6) were fed a high fat diet (60% fat) for four months mice or a regular chow diet. The presence of senescence cells was determined by measuring luminescence (i.e., p16 positive cells). […] Animals were then treated with ganciclovir or vehicle to determine if removal of senescent cells reduced the presence of senescent cells in adipose tissue. Groups of animals were treated with ganciclovir or vehicle. Ganciclovir (25 mg/kg) was administered daily for five consecutive days. The presence of senescent cells in perirenal, epididymal, or subcutaneous inguinal adipose tissue was detected by SA-β-Gal staining. Data were analyzed by ANOVA.

[3] = system: doxorubicin-induced senescent foreskin fibroblasts (HCA2) and aortic endothelial cells (Endo Aort); assay: Cell count survival assay of Nutlin-3a on doxorubicin-induced senescent cells; format: cell-based; details: doxorubicin 250 nM 24 h; HCA2 9 days, aortic endothelial cells 11 days of Nutlin-3a
Method: Foreskin fibroblast cell lines HCA2 and BJ, lung fibroblast cell line IMR90, and mouse embryonic fibroblasts were seeded in six-well plates and induced to senesce with 10 Gy of ionizing radiation (IR) or a 24 hr treatment with doxorubicin (Doxo). Senescent phenotype was allowed to develop for at least 7 days, at which point a cell count was made to determine the baseline number of cells. Nutlin-3a treatment was then initiated for a period of at least 9 days. Media alone or media with drug as appropriate was refreshed at least every three days. At the end of the assay time period, cells are counted. Each condition was seeded in three plate wells and counted independently. Initial cell count serves as a control to determine the induction of senescence, as compared to the last day count without nutlin treatment. Initial non-senescent cell count serves as a proxy to determine Nutlin-3a toxicity.
Foreskin fibroblasts (HCA2) and aortic endothelial cells (Endo Aort) were treated with doxorubicin (250 nM) for one day (24 hours) to induce senescence (see FIG. 1). Eight days following doxorubicin treatment, Nutlin-3a treatment was initiated. HCA2 cells were exposed to Nutlin-3a for 9 days, and aortic endothelial cells were exposed to Nutlin-3a for 11 days. […] Percent survival was calculated as [cell count on the last day of Nutlin-3a treatment/initial cell count on first day of Nutlin-3a treatment].

[4] = system: non-senescent foreskin fibroblasts (HCA2), lung fibroblasts (IMR90), mouse embryonic fibroblasts (MEF); assay: Nutlin-3a toxicity, cell counts of non-senescent fibroblasts; format: cell-based, human; mouse; details: 0, 2.5, 10 μM, 9 days
Method: Non-senescent foreskin fibroblasts (HCA2), lung fibroblasts (IMR90), and mouse embryonic fibroblasts (MEF) were treated with varying concentrations (0, 2.5 μM, and 10 μM) of Nutlin-3a for a period of 9 days to assess Nutlin-3a toxicity. Cell counts were taken at the start (NS start) and end of Nutlin-3a treatment. The difference between counts of cells not treated with Nutlin-3a on day 9 (NS 0) and cell counts determined at day zero (NS start) reflects the cell growth over the indicated time period. […] Decrease in apparent survival between NS 0 and NS 2.5 and between NS 0 and NS 10 reflects a decrease in cell growth. Without wishing to be bound by theory, Nutlin-3a may stabilize p53, leading to cell cycle growth arrest.

[5] = system: IL-6 in senescent IMR90 cells; assay: IL-6 immunofluorescence and ELISA in irradiated senescent IMR90 cells treated with Nutlin-3a; format: cell-based, human
Method: Primary human fibroblast (IMR90) cells were induced to senesce by applying 10 Gy of irradiation. Seven days after irradiation (Day 0), cells were treated with 10 μM Nutlin-3a or vehicle (DMSO) for nine days (Day 9). The drug or vehicle was refreshed every three days. Drug/vehicle was removed at Day 9 and the cells were cultured for an additional three days (Day 12). Cells were then fixed with 4% paraformaldehyde and stained by immunofluorescence with a specific anti-IL-6 antibody (R&D, AF-206-NA). Cells were counterstained with DAPI for nuclear visualization. The percent IL-6 positive cells is illustrated in FIG. 12A. IL-6 positive cells were determined in an unbiased manner using CellProfiler software. Three different cultures were assessed. Non-senescent cells had no detectable cells IL-6 production while senescent cells were about 8% positive at day 9 after vehicle (DMSO) treatment (16 days after irradiation). […] At day 12, 3 days after Nutlin-3a was removed and 19 days after irradiation, IL-6 positive cells in the vehicle control were about 9% and Nutlin3a treated cells were less than 1% positive for IL-6.
In another experiment, IMR90 cells were induced to senesce by irradiation (10 Gy). Seven days after irradiation, cells were treated with 10 μM Nutlin-3a or vehicle (DMSO) for nine days (Day 9). The drug or vehicle was refreshed every three days. Drug/vehicle was removed at Day 9 and the cells were cultured for an additional six days. Conditioned media from the treated cells was collected, and IL-6 measurement by ELISA was performed (Perkin Elmer, AL223F). IL-6 levels in culture media were determined by ELISA using a kit according to manufacturer's instructions (AL223F, Perkin Elmer). Cells were fixed with 4% paraformaldehyde and stained by immunofluorescence with a specific anti-IL-6 antibody (R&D, AF-206-NA). The IL-6 level determined by ELISA was normalized to the number of cells in each well. The data are presented in FIG. 22C as a relative level of IL-6 in the treated cells compared to the level in non-senescent cells (NS). […]

## Nc1nc(O)c2ncn(COC(CO)CO)c2n1 [ganciclovir]
[1]
  restoration of wheel count reduction caused by chemotherapy treatment: approximately 70%
[2]
  presence of senescent cells in epididymal fat (SA-β-Gal): significant reduction

## COc1ccc(C2=N[C@@H](c3ccc(Cl)cc3)[C@@H](c3ccc(Cl)cc3)N2C(=O)N2CCNC(=O)C2)c(OC(C)C)c1 [Nutlin-3a]
[3]
  sensitivity of doxorubicin-induced senescent cells (percent survival): sensitive
[4]
  toxicity to non-senescent fibroblasts (percent growth): reduces proliferation but is non-toxic
[5]; 10 μM for 9 days, then up to 6 days without drug
  IL-6 level (ELISA), fold lower than DMSO treated senescent cells: 5-9 fold
[5]; 10 μM, day 9 (16 days after irradiation)
  percent IL-6 positive cells: below 5%
[5]; day 12, 3 days after drug removal
  percent IL-6 positive cells: less than 1%
